Experimental data published in article PMC8245855 (Acta Pharmaceutica Sinica. B, 2021).
Where two headings read alike, the source gives them in different places.

Key:
[1] = tested on: human neutrophils or macrophages; settings: cited from earlier work
5-LOX [2] = settings: cited from earlier work; for IC50: read-out: IC50, 5-LOX
5-LOX [3] = target: T1, 5-LOX (Homo sapiens, UniProt P09917); assay: cell-free 5-LOX activity; type: biochemical; settings: for IC50: read-out: IC50, human recombinant 5-LOX, arachidonic acid 20 μmol/L
T1 sequence (P09917 1-674): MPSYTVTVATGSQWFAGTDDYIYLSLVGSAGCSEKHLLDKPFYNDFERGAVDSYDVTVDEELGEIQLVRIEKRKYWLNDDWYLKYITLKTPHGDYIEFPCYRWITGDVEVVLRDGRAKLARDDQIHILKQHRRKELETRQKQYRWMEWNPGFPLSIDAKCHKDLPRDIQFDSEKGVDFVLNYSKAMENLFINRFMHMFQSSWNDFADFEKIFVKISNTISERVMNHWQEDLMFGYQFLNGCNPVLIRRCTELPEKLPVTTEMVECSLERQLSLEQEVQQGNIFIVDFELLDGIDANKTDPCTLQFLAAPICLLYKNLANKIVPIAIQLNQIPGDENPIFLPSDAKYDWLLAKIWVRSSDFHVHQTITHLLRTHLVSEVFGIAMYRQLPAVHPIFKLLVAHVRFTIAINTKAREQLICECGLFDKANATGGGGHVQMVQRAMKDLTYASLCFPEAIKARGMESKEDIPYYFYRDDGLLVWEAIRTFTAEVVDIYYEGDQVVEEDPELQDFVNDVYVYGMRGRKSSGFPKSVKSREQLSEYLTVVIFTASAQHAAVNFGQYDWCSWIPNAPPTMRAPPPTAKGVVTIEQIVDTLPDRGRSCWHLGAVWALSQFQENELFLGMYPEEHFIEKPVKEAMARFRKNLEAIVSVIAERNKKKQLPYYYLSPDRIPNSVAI

5-LOX [4] = target: T1, 5-LOX; assay: 5-LOX product formation in activated PMNL; type: cell-based; settings: for IC50: read-out: IC50, 5-LOX product formation, activated PMNL, A23187 plus arachidonic acid
COX-1 = settings: read-out: IC50, COX-1; cited from earlier work
15-LOX = settings: 10 μmol/L; human neutrophils; cited from earlier work
12-LOX = target: T2, 12-LOX (Homo sapiens, UniProt P18054); settings: 10 μmol/L; human neutrophils; cited from earlier work
T2 sequence (P18054 1-663): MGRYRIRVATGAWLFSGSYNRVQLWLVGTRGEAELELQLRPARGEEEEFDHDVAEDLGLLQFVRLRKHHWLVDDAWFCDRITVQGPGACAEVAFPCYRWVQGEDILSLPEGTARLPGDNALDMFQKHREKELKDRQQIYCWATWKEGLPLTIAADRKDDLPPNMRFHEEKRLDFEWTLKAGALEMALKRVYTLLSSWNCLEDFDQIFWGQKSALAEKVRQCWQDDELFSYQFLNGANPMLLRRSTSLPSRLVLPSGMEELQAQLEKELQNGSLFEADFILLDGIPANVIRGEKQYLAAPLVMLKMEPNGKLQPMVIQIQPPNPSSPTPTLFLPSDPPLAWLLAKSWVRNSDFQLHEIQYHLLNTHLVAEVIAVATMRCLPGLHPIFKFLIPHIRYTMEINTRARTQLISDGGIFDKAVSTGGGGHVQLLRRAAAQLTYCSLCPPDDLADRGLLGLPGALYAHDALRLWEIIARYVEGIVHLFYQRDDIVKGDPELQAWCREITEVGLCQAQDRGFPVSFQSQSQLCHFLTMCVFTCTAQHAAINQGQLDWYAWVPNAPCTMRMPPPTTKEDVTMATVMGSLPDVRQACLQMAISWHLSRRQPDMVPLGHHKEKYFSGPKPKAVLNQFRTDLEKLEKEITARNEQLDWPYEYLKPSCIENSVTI

For `Cc1cc(C(C)(C)C)c(O)c(C)c1CC1=NCCN1` [oxymetazoline], the SPM formation ([1]; 400 μmol/L) is given as 130% and the “5-LOX product formation” value (5-LOX [2]; 1000 μmol/L) is given as “failed to inhibit”.

Work on `COc1cc(O)ccc1CCC(c1ccc(O)cc1)c1c(O)c(C)c2c(c1O)C(=O)CC(c1ccc(O)cc1)O2` (centres unmarked) [Compound 4] yielded an IC50 (5-LOX [3]) of 900 ± 260 nM and an IC50 (5-LOX [4]) of 460 ± 120 nM.

For ginkgolic acid, the SPM formation ([1]; 10 μmol/L) is given as 110%–240% and the IC50 (5-LOX [2]) is given as 200 nM.

Work on `COc1ccc(C(CCc2ccc(O)cc2OC)c2cc3c(c(C)c2O)OC(c2ccc(O)cc2)CC3)cc1` (centres unmarked) [Compound 3] yielded an IC50 (5-LOX [3]) of 300 ± 70 nM and an IC50 (5-LOX [4]) of 800 ± 140 nM.

For “3-O-acetyl-11-keto-β-boswellic acid [AKBA]”, the “formation of 15-LOX metabolites” value (15-LOX) is given as 210%, the IC50 (5-LOX [2]) is given as 3000 nM and the “formation of 12-LOX metabolites” value (12-LOX) is given as 270%.

For `CC(c1cc2ccccc2s1)N(O)C(N)=O` (centres unmarked) [Zileuton, zileuton], the “suppression of 5-LOX product formation, cell-free” value (5-LOX [3]; 3 μmol/L) was 70.7 ± 2.7% and the inhibition at 3 µM (5-LOX [4]; PMNL, read-out: inhibition of biosynthesis of 5-LOX metabolites, PMNL) was 64.1 ± 6.3%.
